Earlier results in patent US20090010894A1, “METHODS AND SYSTEMS FOR IDENTIFYING COMPOUNDS THAT MODULATE ALPHA-SYNUCLEIN AGGREGATION” (The parkinson's Institute, priority 2005, published 2009).

What was measured:
α-synuclein = α-synuclein (Homo sapiens, UniProt P37840); details: aggregated α-synuclein contacted with agent in vitro
[1] = system: transgenic C. elegans expressing A53T, E46K, or A30P human α-synuclein; details: exogenous dopamine; transgenic worms expressing mutant human α-synuclein

| promotes disaggregation of α-synuclein (α-synuclein) | SMILES | reversal of failure in food-sensing behavior [1] |
| --- | --- | --- |
| shown to have such an effect | CO[C@H]1/C=C/O[C@@]2(C)Oc3c(C)c(O)c4c(O)c(c(/C=N/N5CCN(C)CC5)c(O)c4c3C2=O)NC(=O)/C(C)=C\C=C\[C@H](C)[C@H](O)[C@@H](C)[C@@H](O)[C@@H](C)[C@H](OC(C)=O)[C@@H]1C [rifampin] | – |
| shown to have such an effect | CO[C@H]1/C=C/O[C@@]2(C)Oc3c(C)c(O)c4c(O)c(cc(O)c4c3C2=O)NC(=O)/C(C)=C\C=C\[C@H](C)[C@H](O)[C@@H](C)[C@@H](O)[C@@H](C)[C@H](OC(C)=O)[C@@H]1C [rifamycin] | – |
| – | NCCc1ccc(O)c(O)c1 [dopamine] | reversed these effects |
